The record followed here is patent publication US20260097060A1, “PHARMACEUTICAL COMPOSITION COMPRISING ENAVOGLIFLOZIN FOR PREVENTING OR TREATING CARDIOVASCULAR AGING DISEASES” (DAEWOONG PHARMACEUTICAL CO., LTD., priority 2022, published 2026).

Usually Tmax stands for the time at which the peak concentration occurs.

Series [1] deals with porcine coronary artery rings. Put plainly: Evaluation of vascular function (bradykinin-induced relaxation of coronary artery rings, organ chamber). Particulars: for bradykinin concentration at which vasorelaxation was significantly increased compared to nanoplastics alone: nanoplastics + 1 μM test drug. How it is done:
Vascular endothelial cells play an important role in maintaining vascular homeostasis, but senescence is known to cause vascular dysfunction. Therefore, vascular reactivity of vascular endothelial cells was evaluated to see whether enavogliflozin prevents vascular dysfunction caused by the exposure to nanoplastics. In addition, the evaluation was performed together with the competing material, empagliflozin, and thus their effects were compared.
Specifically, the left anterior descending coronary artery of the porcine heart was resected into rings with a size of 2 to 3 mm. An experiment was conducted with a control, a group treated with 10 µg/mL of nanoplastics, groups treated with […] of nanoplastics+different concentrations of enavogliflozin (0.01, 0.1, and 1 μM), and a group treated with 10 µg/mL of nanoplastics+[…] empagliflozin. The coronary artery rings were placed in Crabb's solution at 37° C. in an organ chamber (95% 02, 5% CO2) to measure changes in isometric tension. The viability of each coronary ring was confirmed by constant […] loading at 5 g for 90 minutes and repeated contractions with up to 80 mM KCl. After washing for 30 minutes, the coronary artery rings were constricted to approximately 80% (maximum contraction) using the thromboxane mimetic U46619 and treated with bradykinin. The relaxation rate of blood vessels in relation to the concentration of bradykinin was then calculated. The results are shown in the graph of FIG. 10.
For statistical data analysis, Prism 5.03 software (GraphPad Software Inc., San Diego, CA, USA) was used. The test results are expressed as the mean±standard error of the mean (SEM). The statistical method was to conduct a two-way ANOVA to verify the difference between groups, and a post hoc test for each type was performed using the verification method with the Bonferroni function. The significance level was set to be p<0.05.
Bradykinin is a biomaterial, and when a bradykinin receptor is activated, endothelial nitric oxide synthase (eNOS) is activated, releasing nitric oxide (NO) and relaxing blood vessels.

Series [2] concerns porcine coronary artery endothelial cells. As to the kind of experiment: Evaluation of cell proliferation effect (MTS). The note with it: nanoplastics + enavogliflozin 0.01, 0.1 and 1 μM, 24 hours, vs nanoplastics. The format is cell-based. As to the method: Cell cycle arrest is one of the main features of cellular senescence. It was confirmed whether enavogliflozin could improve decreased proliferation of endothelial cells, that is, cellular senescence, caused by the exposure to nanoplastics.
Specifically, after extracting the porcine coronary artery, the porcine coronary artery was treated with collagenase for 20 minutes and centrifuged to obtain coronary artery endothelial cells. The cells were seeded at 1×10^4 cells/well in a 96-well plate. The cells were incubated in DMEM containing 10% FBS, penicillin (100 U/mL), streptomycin (100 U/mL), and fungizone ([…]) in a 5% CO2 incubator at 37° C. The cells were divided into a control, a group treated with 10 µg/mL of nanoplastics, and groups treated with the nanoparticles+different concentrations of enavogliflozin (0.01, 0.1, and 1 μM) to perform the experiment, and the cell proliferation effect was measured using a CellTiter 96 Aqueous One Solution Cell Proliferation Assay (Promega Corporation, USA) kit. Samples were treated and incubated for 24 hours, and treated with an MTS tetrazolium solution (20 μL/well) to allow a reaction for 3 hours, and then absorbance was measured at 490 nm using an Enspire Multilabel Reader (Perkin Elmer Ltd.).
For statistical data analysis, Prism 5.03 software (GraphPad Software Inc., San Diego, CA, USA) was used. […]

The nature of the next series: Pharmacokinetics (Tmax). The format is in vivo. Particulars: blood, oral.
In a further series the test system is eNOS. Put plainly: Measurement of expression of eNOS (western blot). The format is cell-based, porcine. Particulars: nanoplastics + enavogliflozin 0.01, 0.1 and 1 μM, 24 hours. How it is done: Reduced eNOS expression is a common feature in endothelial senescence, and is known to cause endothelial dysfunction. Here, the expression of eNOS was measured, thereby confirming that enavogliflozin improves the damage to the endothelial function caused by the exposure to nanoplastics.
Specifically, the cells were seeded at 1×10^5 cells/well in a 6-well plate. The cells were cultured in DMEM containing 10% FBS, penicillin (100 U/mL), streptomycin (100 U/mL), and fungizone ([…]) in a CO2 incubator at 37° C. […]
To lyse the porcine coronary artery endothelial cells, 1×RIPA buffer was added to each well and the cells were lysed for 10 minutes. […] Protein quantification of the obtained cell lysate was measured using Bio-Rad DC protein reagent. […]
After eNOS (1:1,000) and 3-actin (1:1,000) as primary antibodies were reacted at 4° C. for 24 hours, the resulting product was washed 3 to 5 times with 1×TBS-T buffer for 10 minutes. […] Protein bands were treated with an ECL solution and detected using Amersham imager 680.
(§1) For statistical data analysis, Prism 5.03 software (GraphPad Software Inc., San Diego, CA, USA) was used. The test results are expressed as the mean±standard error of the mean (SEM). […]
Background: A western blot detects proteins with antibodies after separation by electrophoresis.

The subject of series [3] is porcine coronary artery rings and coronary artery-derived endothelial cells. Put plainly: Evaluation of β-galactosidase (SA-β-Gal) activity (X-gal staining). In kind it is cell-based. Particulars: 10 µg/mL nanoplastics + enavogliflozin 0.01, 0.1 and 1 μM, 24 hours, vs nanoplastics. As to the method: Senescence-related β-galactosidase (SA-β-Gal) activity is the characteristic of senescent cells, and used as a histochemical marker for senescence.
Specifically, the porcine coronary artery was cut into a size of 2 to 3 mm to form coronary artery rings. Next, the coronary artery rings were divided into a control, a group treated with 10 µg/mL of nanoplastics, and groups treated with 10 µg/mL of the nanoparticles+different concentrations of enavogliflozin (0.01, 0.1, and 1 μM) to perform the experiment. After 24-hour culture, the cells were fixed with 4% formaldehyde, and stained with an X-gal dye to allow a reaction for one day.
Subsequently, the coronary artery rings were immersed in an optimal cutting temperature (OCT) solution (Leica Biosystems) and cut to 10 μm sections using a cryotome at −25° C. and observed under a microscope. The results are shown in the photograph in FIG. 5. In addition, the evaluation of β-galactosidase activity in endothelial cells derived from the porcine coronary artery is as follows. […]
as §1

Series [4] relates to Nox2 and p22phox, membrane catalytic subunits of NADPH oxidase. As to the kind of experiment: Expression of oxidative stress-associated markers (western blot). In kind it is cell-based, porcine. Particulars: nanoplastics + enavogliflozin 0.01, 0.1 and 1 μM, 24 hours. As to the method:
In the porcine coronary artery endothelial cells, it is known that NADPH oxidase produces a peroxide in endothelial cells to cause cellular senescence and endothelial dysfunction. Oxidative stress in cells was assessed by measuring the expression of Nox2 and p22phox, which are membrane catalytic subunits of the NAPDH oxidase.
Specifically, the cells were seeded at 1×10^5 cells/well in a 6-well plate. The cells were incubated in DMEM containing 10% FBS, penicillin (100 U/mL), streptomycin (100 U/mL), and fungizone ([…]) in a CO2 incubator at 37° C. The cells were divided into a control, a group treated with 10 µg/mL of nanoplastics, and groups treated with nanoplastics+different concentrations of enavogliflozin (0.01, 0.1, and 1 μM), treated with a sample, and then incubated for 24 hours.
To lyse the porcine coronary artery endothelial cells, 1×RIPA buffer was added to each well and the cells were lysed for 10 minutes. The cells were scraped with a scraper and centrifuged at 14,000 rpm and 4° C. for 15 minutes. Protein quantification of the obtained cell lysate was measured using Bio-Rad DC protein reagent. Analysis was performed by equally loading […] of protein. […]
as §1

Series [5] has as its system cellular senescence markers p53 and p21. Put plainly: Expression of endothelial cell senescence markers (western blot). The note with it: nanoplastics + enavogliflozin 0.01, 0.1 and 1 μM, 24 hours. The format is cell-based, porcine. How it is done: The expression of cellular senescence markers p53 and p21 was confirmed in porcine coronary artery endothelial cells.
Specifically, the cells were seeded at 1×10^5 cells/well in a 6-well plate. The cells were cultured in DMEM containing 10% FBS, penicillin (100 U/mL), streptomycin (100 U/mL), and fungizone ([…]) in a CO2 incubator at 37° C. The cells were divided into a control, a group treated with 10 μg/mL of nanoplastics, and groups treated with the nanoparticles+different concentrations of enavogliflozin (0.01, 0.1, and 1 μM), and then the cells were treated with samples and incubated for 24 hours.
To lyse the porcine coronary artery endothelial cells, 1×RIPA buffer was added to each well and the cells were lysed for 10 minutes. The cells were scraped with a scraper and centrifuged at 14,000 rpm and 4° C. for 15 minutes. Protein quantification of the obtained cell lysate was measured using Bio-Rad DC protein reagent. Analysis was performed by equally loading 15 g of protein.
After reacting with p53 (1:1,000), p21 (1:1,000), and β-actin (1:1,000) as primary antibodies at 4° C. for 24 hours, the cells were washed 3 to 5 times with 1×TBS-T buffer for 10 minutes. […]
as §1

The nature of series [6]: Dissolution test (Korean Pharmacopoeia method 2, paddle method). In kind it is physicochemical. How it is done:
Since the dissolution rate of the active ingredient in the pharmaceutical composition affects the maximum blood concentration (Cmax) and the blood concentration-area under the blood concentration-time curve (AUC) when administering the drug, to achieve appropriate Cmax and AUC, it is important to adjust the dissolution rate of the pharmaceutical composition. Since enavogliflozin has a Tmax of 1 to 2 hours, the drug absorption rate in the stomach is considered important. The above dissolution rate was measured under the condition of the dissolved solution 1.2 in accordance with the dissolution test method 2 of the Korean Pharmacopoeia (paddle method). For specific conditions, refer to the following experimental examples.

Series [7] has as its system reactive oxygen species (ROS). Put plainly: Evaluation of oxidative stress (ROS, DCF-DA and DHE fluorescence). In kind it is cell-based, porcine. Particulars: 10 µg/mL nanoplastics + enavogliflozin 0.01, 0.1 and 1 μM. As to the method:
Oxidative stress was measured using dihydroethidium (DHE) and 2′,7′-dichlorodihydrofluorescein diacetate (DCF-DA).
Specifically, porcine coronary artery endothelial cells were seeded at 1×10^4 cells/well in a black 96-well plate. The cells were divided into a control, a group treated with 10 µg/mL of nanoplastics, and groups treated with 10 µg/mL of the nanoparticles+different concentrations of enavogliflozin (0.01, 0.1, and 1 μM) to perform the experiment. The cells were incubated in DMEM containing 10% FBS, penicillin (100 U/mL), streptomycin (100 U/mL), and fungizone ([…]) in a CO2 incubator at 37° C. After 24-hour incubation, the amount of reactive oxygen species (ROS) produced was measured by fluorescent absorbance (excitation/emission 485/535 nm).
To measure the ROS produced also in the coronary artery rings, the coronary artery rings were treated with samples for each group, and immersed in a frame containing an OCT solution (Leica Biosystems) and frozen in liquid nitrogen. The frozen result was cut into […] sections using a cryotome, and the sections were stained with DHE (10 μM) and incubated at 37° C. for 45 minutes, washed with PBS, and then observed using a fluorescence microscope.
as §1

For the molecule `OC[C@H]1O[C@@H](c2ccc(Cl)c(Cc3ccc(O[C@H]4CCOC4)cc3)c2)[C@H](O)[C@@H](O)[C@@H]1O` [empagliflozin, reference compound], in [1], the “bradykinin concentration at which vasorelaxation was significantly increased compared to nanoplastics alone” value was at least 30 nM.

`OC[C@H]1O[C@@H](c2cc(Cc3ccc(C4CC4)cc3)c(Cl)c3c2CCO3)[C@H](O)[C@@H](O)[C@@H]1O` [enavogliflozin]: the cell proliferation entry in series [2] is reported as “improved”. Besides, the time of peak concentration (Tmax) in “Pharmacokinetics (Tmax)” was in the range of 1 to 2 h. For the same molecule, the bradykinin-induced vasorelaxation entry in series [1] (10 µg/mL nanoplastics + enavogliflozin 0.01, 0.1 and 1 μM, vs nanoplastics alone) is listed as “significantly increased”. Besides, the “bradykinin concentration at which vasorelaxation was significantly increased compared to nanoplastics alone” value in series [1] is at least 0.3 nM. In addition, the eNOS expression entry in the series with eNOS is listed as “significantly increase”. Further, the “β-galactosidase (SA-β-Gal) activity” value in series [3] is recorded as “significantly reduced”. In [4], the “expression of Nox2” value is on record as “significantly decreased in a concentration-dependent manner” and the “expression of p22phox” value was “significantly decreased in a concentration-dependent manner”. Besides, in series [5], the “expression of p21 protein” value was “significantly decreased in a concentration-dependent manner” and the “expression of p53 protein” value is “significantly decreased in a concentration-dependent manner”. In addition, the 30-minute dissolution rate result in series [6] (average particle size of enavogliflozin) is on record as “less than 80%”. Also, in [6] (average particle size of enavogliflozin greater than 15 m), the 5-minute dissolution rate entry is given as “less than 40 % of the total content of enavogliflozin”. In addition, in series [7], the “fluorescence intensity of DCF-DA (ROS production)” value was “significantly decreased” and the “fluorescence intensity of DHE (ROS production)” value was “significantly decreased”.
